Test systems include A498 renal; ACHN renal; LOX IMVI melanoma; OVCAR-3 ovarian; SF-268 CNS; SW-620 colon; CAKI-1 renal; RPMI-8226 leukemia; SK-MEL-2 melanoma; SK-MEL-28 melanoma.
What all share (assay): NCI-60 cell line screen, 48 h

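Each compound was tested at five concentrations against cells in 96-well plates for 48 hours. GI50 = concentration required for 50% inhibition of growth. At the TGI there is no net growth.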

For `NC(=O)c1c(NC(=O)c2ccccn2)sc2c1CCC(=O)C2`, the GI50 in the assay on A498 renal is more than 100 µM; in the assay with ACHN renal it was 2.62 µM; with LOX IMVI melanoma, 3.72 µM; in the assay with OVCAR-3 ovarian it was 3.25 µM; in the assay on SF-268 CNS, 3.49 µM; in the assay with SW-620 colon, 0.882 µM. The TGI in the assay on A498 renal is more than 100 µM; in the assay with ACHN renal it was more than 100 µM; in the assay on LOX IMVI melanoma, more than 100 µM; in the assay on OVCAR-3 ovarian, 45.7 µM; in the assay on SF-268 CNS, more than 100 µM; with SW-620 colon, more than 100 µM.

`COc1nc(C#CC2(O)CCCCC2)nc(OC)n1`: the TGI in the assay on A498 renal came to 31.2 µM; in the assay with ACHN renal, 21.9 µM; in the assay on CAKI-1 renal it was 15.9 µM; in the assay with LOX IMVI melanoma, 11.7 µM; in the assay with OVCAR-3 ovarian, 20.4 µM; in the assay on RPMI-8226 leukemia, 10.5 µM. The TGI in the assay on SF-268 CNS was found to be 40.7 µM; in the assay with SK-MEL-2 melanoma, 27 µM; in the assay on SK-MEL-28 melanoma it was 30.2 µM; with SW-620 colon, 24.1 µM.

With `O=C(OCN1C(=O)C2C3C=CC(C2C1=O)C1C2C(=O)N(COC(=O)C4CCCN4)C(=O)C2C31)C1CCCN1` (centres undefined), the TGI in the assay on A498 renal was more than 100 µM; in the assay with ACHN renal, more than 83.4 µM; with CAKI-1 renal it was more than 100 µM; in the assay with LOX IMVI melanoma, more than 64.5 µM; with OVCAR-3 ovarian, more than 100 µM; with RPMI-8226 leukemia it was 54.1 µM. The TGI was more than 78.5 µM with SF-268 CNS, more than 31.6 µM in the assay with SK-MEL-2 melanoma, more than 100 µM in the assay on SK-MEL-28 melanoma and more than 72.2 µM with SW-620 colon.

Turning to `O=C(O)C1C2CCC(O2)C1C(=O)Nc1cccc2cccnc12` (centres undefined), the TGI in the assay on A498 renal, with ACHN renal, in the assay on CAKI-1 renal, in the assay on LOX IMVI melanoma, in the assay on OVCAR-3 ovarian and in the assay with RPMI-8226 leukemia was more than 100 µM each time. Besides, the TGI in the assay on SK-MEL-2 melanoma, with SK-MEL-28 melanoma and with SW-620 colon was more than 100 µM each time.

On to `COc1ccc2c(c1)[nH]c1c(/C=C/c3ccccc3)nccc12`, for which the TGI in the assay with A498 renal stood at 26.6 µM; in the assay with ACHN renal, 28.4 µM; in the assay with CAKI-1 renal, 52 µM; in the assay with LOX IMVI melanoma, 63.2 µM; with OVCAR-3 ovarian, 36.9 µM; with RPMI-8226 leukemia, 93.5 µM. Further, the TGI with SF-268 CNS was 36.7 µM; with SK-MEL-2 melanoma it was 33.2 µM; with SK-MEL-28 melanoma, 31.9 µM; in the assay with SW-620 colon it was 91.9 µM.

As for `CN(C)CC(CC1=C(CC(CN(C)C)N(C)C)CCC1)N(C)C` (centres undefined), the TGI in the assay with A498 renal, in the assay on CAKI-1 renal, in the assay on LOX IMVI melanoma, with OVCAR-3 ovarian, in the assay on RPMI-8226 leukemia and with SF-268 CNS was more than 100 µM in each case. Also, the TGI in the assay on SK-MEL-2 melanoma, in the assay with SK-MEL-28 melanoma and in the assay with SW-620 colon was more than 100 µM each time.

Regarding `CC1=CC(=O)c2ccccc2C1=O`, the TGI turned out to be 39.1 µM with A498 renal; 13.1 µM with ACHN renal; 29.7 µM with CAKI-1 renal; 5.72 µM with LOX IMVI melanoma; 23.4 µM in the assay on OVCAR-3 ovarian; 5.39 µM in the assay with RPMI-8226 leukemia. The TGI in the assay with SF-268 CNS is 22.2 µM; in the assay on SK-MEL-2 melanoma, 22.7 µM; in the assay with SK-MEL-28 melanoma it was 16.6 µM; with SW-620 colon, 4.82 µM.

Turning to `Nc1nc(SCCc2ccccc2)nc2nc3c(c(-c4ccccc4)c12)CCCC3`, the TGI with ACHN renal, in the assay with CAKI-1 renal, in the assay on LOX IMVI melanoma, with OVCAR-3 ovarian, with RPMI-8226 leukemia and in the assay on SF-268 CNS was more than 100 µM in each case. Besides, the TGI in the assay on SK-MEL-28 melanoma and with SW-620 colon was more than 100 µM throughout.

Take `COc1cccc2c1Cc1cc(-c3ccccc3)[n+](C)n1-2`: the TGI in the assay on A498 renal is more than 100 µM; with ACHN renal, 79.9 µM; in the assay with CAKI-1 renal, more than 100 µM; with LOX IMVI melanoma, 29.3 µM; in the assay with OVCAR-3 ovarian, more than 100 µM; with RPMI-8226 leukemia, more than 100 µM. In addition, the TGI is more than 100 µM in the assay on SF-268 CNS, 50 µM with SK-MEL-2 melanoma, more than 100 µM in the assay on SK-MEL-28 melanoma and more than 100 µM with SW-620 colon.

For the compound `C[C@H](CCC(=O)O)[C@H]1CC[C@@]2(C)[C@@H]3C(=O)C[C@H]4C(C)(C)[C@@H](O)CC[C@]4(C)[C@H]3C(=O)C[C@]12C`, the TGI in the assay with A498 renal, in the assay with ACHN renal, with CAKI-1 renal, in the assay with LOX IMVI melanoma, in the assay with OVCAR-3 ovarian and in the assay on RPMI-8226 leukemia was more than 100 µM in each case. In addition, the TGI in the assay with SF-268 CNS, in the assay with SK-MEL-2 melanoma, with SK-MEL-28 melanoma and in the assay on SW-620 colon was more than 100 µM in each case.

Consider `CCn1c(-c2ccc(N=NNc3ccc(-c4n[nH]c(=S)n4CC)cc3)cc2)n[nH]c1=S`, for which the TGI with A498 renal is more than 100 µM; in the assay on ACHN renal, 6.1 µM; in the assay on LOX IMVI melanoma, more than 100 µM; in the assay with OVCAR-3 ovarian, 5.61 µM; with RPMI-8226 leukemia it was 5.64 µM; in the assay on SF-268 CNS, 17.2 µM. For the same compound, the values for the TGI in the assay with SK-MEL-2 melanoma, in the assay on SK-MEL-28 melanoma and in the assay with SW-620 colon were 4.45 µM, more than 100 µM and more than 100 µM, respectively.

`O=c1cccccc1[O-].O=c1cccccc1[O-].[O]=[U+2]=[O]`: in the assay on A498 renal, the GI50 is 25.1 µM. Besides, the TGI in the assay on A498 renal is 45.8 µM; in the assay on ACHN renal, 48 µM; in the assay on CAKI-1 renal, 56.4 µM; in the assay on LOX IMVI melanoma, 95 µM; with OVCAR-3 ovarian it was 36.8 µM; in the assay with SK-MEL-28 melanoma it was 61 µM. In the assay on SW-620 colon, this compound displayed a TGI of more than 100 µM.

With `Nc1ccccc1S(=O)(=O)c1ccccc1`, the TGI in the assay on A498 renal, with ACHN renal, in the assay with LOX IMVI melanoma, in the assay on OVCAR-3 ovarian, in the assay with RPMI-8226 leukemia and in the assay with SF-268 CNS was more than 100 µM in each case. The TGI in the assay on SK-MEL-2 melanoma, in the assay with SK-MEL-28 melanoma and with SW-620 colon was more than 100 µM throughout.

Turning to `O=C(/C=C/c1ccc(O)c(-c2cc(C(=O)/C=C/c3ccc(O)cc3)c(O)cc2O)c1)c1ccc(O)cc1O`, the TGI in the assay with A498 renal is more than 50 µM; in the assay on ACHN renal, more than 50 µM; in the assay with CAKI-1 renal, more than 50 µM; with LOX IMVI melanoma, 43.1 µM; in the assay on OVCAR-3 ovarian it was 43.8 µM; in the assay on RPMI-8226 leukemia, more than 50 µM. In addition, the TGI in the assay on SF-268 CNS is more than 50 µM; with SK-MEL-2 melanoma, more than 50 µM; in the assay on SK-MEL-28 melanoma, 22.1 µM; in the assay on SW-620 colon, more than 50 µM.

These data come from PubChem BioAssay (NCI).
